We go through two molecules from article PMC11881918, “Kir7.1 is the physiological target for hormones and steroids that regulate uteroplacental function” (Science Advances, 2025).

What all share (type): cell-based
Assay [1] addresses T1, Kir7.1 (hKir7.1) (Homo sapiens, UniProt O60928).
T1 sequence (O60928 1-360): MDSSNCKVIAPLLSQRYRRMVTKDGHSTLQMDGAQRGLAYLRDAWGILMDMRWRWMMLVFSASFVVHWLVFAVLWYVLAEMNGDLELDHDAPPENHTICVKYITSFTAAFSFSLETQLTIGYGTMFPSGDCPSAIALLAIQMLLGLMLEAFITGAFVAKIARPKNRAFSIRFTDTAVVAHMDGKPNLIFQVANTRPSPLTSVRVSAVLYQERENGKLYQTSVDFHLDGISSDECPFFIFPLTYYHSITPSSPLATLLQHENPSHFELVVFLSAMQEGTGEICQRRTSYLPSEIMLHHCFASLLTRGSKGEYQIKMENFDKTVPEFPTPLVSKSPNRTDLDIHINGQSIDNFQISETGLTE
Kind of assay: whole-cell patch clamp, dose response of current potentiation at -80 mV. On the set-up: gene KCNJ13; recombinant hKir7.1 (pIRES2-eGFP-hKir7.1) in HEK293 cells and HUtSMCs.

A further assay has as its target T2, murine Kir7.1 (Mus musculus, UniProt P86046).
T2 construct: gene Kcnj13; recombinant murine Kir7.1 in HEK293 cells
T2 sequence (P86046 1-360): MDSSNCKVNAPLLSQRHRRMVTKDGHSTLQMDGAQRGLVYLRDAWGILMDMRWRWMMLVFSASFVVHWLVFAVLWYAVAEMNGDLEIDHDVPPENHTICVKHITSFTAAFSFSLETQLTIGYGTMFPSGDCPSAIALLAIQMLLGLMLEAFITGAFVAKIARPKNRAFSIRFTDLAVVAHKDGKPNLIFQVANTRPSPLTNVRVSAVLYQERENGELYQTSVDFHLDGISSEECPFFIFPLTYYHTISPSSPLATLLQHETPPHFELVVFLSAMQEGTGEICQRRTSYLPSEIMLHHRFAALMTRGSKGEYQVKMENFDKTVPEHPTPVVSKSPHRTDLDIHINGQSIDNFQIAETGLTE
Nature of the assay: whole-cell patch clamp, dose response of current potentiation.

The target in assay [2] is T1, Kir7.1 (hKir7.1). Kind of assay: whole-cell patch clamp, inhibition of P4-activated current. Details: gene KCNJ13; recombinant hKir7.1 in HEK293 cells.

As to `CC(=O)[C@H]1CC[C@H]2[C@@H]3CCC4=CC(=O)CC[C@]4(C)[C@H]3CC[C@]12C` [P4, progesterone], the EC50 at Kir7.1 (hKir7.1) [1] is ~ 9.4 and 11.5 μM; at murine Kir7.1 it was ~ 9.4 and 11.5 μM.

In the case of `C[C@]12CC[C@@H]3c4ccc(O)cc4CC[C@H]3[C@@H]1CC[C@@H]2O` [E2, 17β-estradiol], the IC50 at Kir7.1 (hKir7.1) [2] was 8.6 µM.
